Two compounds from ChEMBL document CHEMBL4359843, “Linear and Rationally Designed Stapled Peptides Abrogate TLR4 Pathway and Relieve Inflammatory Symptoms in Rheumatoid Arthritis Rat Model” (J Med Chem, 2019) can be followed below.

The source made the active and inactive calls. The rule behind the calls is not given here. Where a SMILES comes first, the peptide text is derived from it. Bridges are numbered along the chain shown (N, C = ends).

Test [1] has as its system Rattus norvegicus. The test is described as follows: Antiarthritic activity in Lewis rat model of complete Freund's adjuvant-induced arthritis assessed as appearance of osteocytes at 1 nmol/g administered intra-articularly into knee joint after 1 week by H and E staining based histopathological analysis. In kind it is functional, organism-based.
Test [2] deals with T1, Toll-like receptor 4 (Homo sapiens, UniProt O00206). The test is described as follows: Antagonist activity at TLR4 in human THP1 cells assessed as reduction in LPS-induced ATF3 activation at 50 uM after 120 to 240 mins by Western blot analysis. In kind it is cell-based.
In test [3] the test system is Rattus norvegicus. The test is described as follows: Antiarthritic activity in Lewis rat model of complete Freund's adjuvant-induced arthritis assessed as reduction in ankle swelling and edema at 1 nmol/g administered intra-articularly into knee joint after 2 weeks by visual analysis. In kind it is functional, organism-based.
Test [4] deals with T2, Toll-like receptor 4 (Mus musculus) (UniProt Q9QUK6).
T2 sequence (whole entry): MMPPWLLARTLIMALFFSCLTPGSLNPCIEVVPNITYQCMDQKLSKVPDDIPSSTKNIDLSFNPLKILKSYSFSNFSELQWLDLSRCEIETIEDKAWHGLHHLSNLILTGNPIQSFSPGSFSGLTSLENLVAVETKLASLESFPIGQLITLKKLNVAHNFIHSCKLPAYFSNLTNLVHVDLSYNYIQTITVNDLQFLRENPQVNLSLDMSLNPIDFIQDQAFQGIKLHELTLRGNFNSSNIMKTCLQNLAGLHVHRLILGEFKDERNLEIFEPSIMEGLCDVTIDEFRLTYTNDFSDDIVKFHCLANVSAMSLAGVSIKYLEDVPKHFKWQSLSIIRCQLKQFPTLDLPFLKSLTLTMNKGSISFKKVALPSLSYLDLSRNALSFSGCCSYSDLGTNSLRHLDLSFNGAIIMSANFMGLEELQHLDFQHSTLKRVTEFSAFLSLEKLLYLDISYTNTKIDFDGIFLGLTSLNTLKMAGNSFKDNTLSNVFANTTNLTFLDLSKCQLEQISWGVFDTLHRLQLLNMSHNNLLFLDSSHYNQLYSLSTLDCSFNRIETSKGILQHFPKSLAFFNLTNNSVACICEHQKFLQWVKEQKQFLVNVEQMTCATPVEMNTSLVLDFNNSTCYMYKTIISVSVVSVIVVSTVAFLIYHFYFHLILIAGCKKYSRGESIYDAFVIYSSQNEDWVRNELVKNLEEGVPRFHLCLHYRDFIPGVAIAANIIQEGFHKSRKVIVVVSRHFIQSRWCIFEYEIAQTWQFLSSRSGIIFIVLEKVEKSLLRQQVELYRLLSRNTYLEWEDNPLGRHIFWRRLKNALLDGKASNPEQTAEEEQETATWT
The test is described as follows: Antagonist activity at TLR4 in mouse RAW264.7 cells assessed as reduction in LPS-induced extracellular NO secretion at 5 to 50 uM by spectrophotometric method. The format is cell-based.

For test [5], the target named is T2, Toll-like receptor 4 (Mus musculus). The test is described as follows: Antagonist activity at TLR4 in mouse RAW264.7 cells assessed as reduction in LPS-induced iNOS expression at 80 uM by Western blot analysis. In kind it is cell-based.
Test [6] shares this target. Kind of test: Antagonist activity at TLR4 in mouse RAW264.7 cells assessed as reduction in LPS-induced cytosolic NO level at 80 uM by DAF-FM staining based FACS analysis. The format is cell-based.
The target of a further test is TLR2/TLR6 (Homo sapiens) (UniProt O60603+Q9Y2C9). Kind of test: Antagonist activity at TLR2/6 in human PBMC cells assessed as reduction in FSL-1-induced IL6 secretion at 20 to 80 uM after 24 hrs by ELISA. The format is cell-based.
Test [7] has as its target T2, Toll-like receptor 4 (Mus musculus). Kind of test: Antagonist activity at TLR4 in mouse BMDM cells assessed as reduction in LPS-induced IFNbeta secretion at 20 to 80 uM after 24 hrs by ELISA. In kind it is cell-based.
For test [8], the target named is T1, Toll-like receptor 4. The test is described as follows: Antagonist activity at human TLR4 expressed in HEK-Blue cells assessed as reduction in LPS-induced SEAP activity pre-incubated for 1 hr followed by LPS stimulation and measured after 24 hrs by SEAP assay. In kind it is cell-based.
In test [9] the test system is Mus musculus. Kind of test: Antiinflammatory activity in C57BL/6J mouse assessed as reduction in LPS-induced TNFalpha secretion at 70 nmol/g, ip pretreated for 1 hr followed by LPS challenge and measured after 2 hrs by ELISA. In kind it is functional, organism-based. (In an ELISA, binding on a coated surface is turned into a signal by an enzyme label.)
Test [10] deals with Mus musculus. Kind of test: Antiinflammatory activity in C57BL/6J mouse assessed as reduction in LPS-induced IL6 secretion at 70 nmol/g, ip pretreated for 1 hr followed by LPS challenge and measured after 2 hrs by ELISA. The format is functional, organism-based.
Test [11] has as its target T2, Toll-like receptor 4 (Mus musculus). Kind of test: Antagonist activity at TLR4 in mouse BMDM cells assessed as reduction in LPS-induced extracellular NO secretion by spectrophotometric method. The format is cell-based.
Test [12] concerns the target T1, Toll-like receptor 4. Kind of test: Antagonist activity at TLR4 in human PBMC cells assessed as reduction in LPS-induced IkappaBalpha degradation at 80 uM after 15 to 30 mins by Western blot analysis. In kind it is cell-based.
In test [13] the target is T3, Toll-like receptor 9 (Mus musculus) (UniProt Q9EQU3).
T3 sequence (whole entry): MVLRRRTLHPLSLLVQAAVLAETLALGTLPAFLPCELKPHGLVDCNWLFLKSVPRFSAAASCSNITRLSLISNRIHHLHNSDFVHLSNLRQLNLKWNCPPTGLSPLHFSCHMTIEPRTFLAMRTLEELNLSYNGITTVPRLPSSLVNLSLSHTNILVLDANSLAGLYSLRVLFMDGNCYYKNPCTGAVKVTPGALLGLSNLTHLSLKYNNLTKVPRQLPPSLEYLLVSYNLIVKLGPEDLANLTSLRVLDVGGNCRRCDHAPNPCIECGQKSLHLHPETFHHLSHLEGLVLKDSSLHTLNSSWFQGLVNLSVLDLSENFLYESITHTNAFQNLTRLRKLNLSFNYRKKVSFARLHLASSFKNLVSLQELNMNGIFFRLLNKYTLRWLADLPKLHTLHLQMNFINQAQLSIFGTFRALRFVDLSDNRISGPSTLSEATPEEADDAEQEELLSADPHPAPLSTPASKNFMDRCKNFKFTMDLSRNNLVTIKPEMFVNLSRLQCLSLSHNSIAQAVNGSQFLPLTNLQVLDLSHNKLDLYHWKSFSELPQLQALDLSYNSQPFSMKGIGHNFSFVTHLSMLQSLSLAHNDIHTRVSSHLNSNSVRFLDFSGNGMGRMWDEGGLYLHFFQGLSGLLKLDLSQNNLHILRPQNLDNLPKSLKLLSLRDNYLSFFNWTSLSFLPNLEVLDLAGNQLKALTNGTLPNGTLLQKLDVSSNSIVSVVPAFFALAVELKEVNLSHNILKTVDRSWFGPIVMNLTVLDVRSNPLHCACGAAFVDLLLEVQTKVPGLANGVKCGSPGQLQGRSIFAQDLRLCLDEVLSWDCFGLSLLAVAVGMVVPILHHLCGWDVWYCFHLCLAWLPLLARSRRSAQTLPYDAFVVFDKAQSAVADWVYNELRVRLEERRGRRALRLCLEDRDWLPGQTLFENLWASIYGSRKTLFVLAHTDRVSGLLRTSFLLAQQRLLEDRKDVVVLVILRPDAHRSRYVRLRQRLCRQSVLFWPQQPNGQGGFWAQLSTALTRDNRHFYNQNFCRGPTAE
The test is described as follows: Antagonist activity at TLR9 in mouse RAW264.7 cells assessed as reduction in CpG ODN-induced TNFalpha secretion at 20 to 80 uM after 24 hrs by ELISA. In kind it is cell-based.

T1 sequence (O00206 whole entry): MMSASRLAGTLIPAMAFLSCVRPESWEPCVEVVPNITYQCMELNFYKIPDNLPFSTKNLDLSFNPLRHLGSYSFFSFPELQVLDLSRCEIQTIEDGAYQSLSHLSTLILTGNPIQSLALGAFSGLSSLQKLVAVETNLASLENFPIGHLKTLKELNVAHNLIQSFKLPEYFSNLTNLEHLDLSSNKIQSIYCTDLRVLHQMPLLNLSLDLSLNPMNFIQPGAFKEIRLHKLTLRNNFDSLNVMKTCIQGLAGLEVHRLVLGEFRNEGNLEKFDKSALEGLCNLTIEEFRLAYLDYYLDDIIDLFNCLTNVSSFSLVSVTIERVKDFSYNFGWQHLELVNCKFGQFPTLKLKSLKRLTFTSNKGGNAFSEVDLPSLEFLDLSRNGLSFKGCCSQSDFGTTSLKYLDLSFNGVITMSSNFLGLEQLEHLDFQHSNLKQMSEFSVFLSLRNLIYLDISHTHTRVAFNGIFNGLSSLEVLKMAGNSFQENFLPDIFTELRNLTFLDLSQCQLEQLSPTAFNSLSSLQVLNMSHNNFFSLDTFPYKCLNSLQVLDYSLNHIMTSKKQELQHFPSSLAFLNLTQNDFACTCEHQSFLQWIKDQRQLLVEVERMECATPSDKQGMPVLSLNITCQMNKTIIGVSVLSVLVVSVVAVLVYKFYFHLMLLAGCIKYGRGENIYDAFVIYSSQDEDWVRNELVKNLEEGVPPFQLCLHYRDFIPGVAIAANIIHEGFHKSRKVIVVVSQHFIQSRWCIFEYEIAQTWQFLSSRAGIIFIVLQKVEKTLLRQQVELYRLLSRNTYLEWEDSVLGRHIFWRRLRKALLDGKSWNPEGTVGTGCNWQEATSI

As to `CC[C@H](C)[C@@H]1NC(=O)[C@H](Cc2c[nH]c3ccccc23)NC(=O)[C@H](Cc2c[nH]c3ccccc23)NC(=O)[C@@H](NC(=O)[C@H](CO)NC(=O)[C@H](Cc2ccccc2)NC(=O)[C@@H](NC(=O)CNC(=O)[C@@H](N)CC(C)C)C(C)C)CC(=O)NCCCC[C@@H](C(=O)N[C@@H](CC(C)C)C(=O)N[C@H](C(=O)O)C(C)C)NC1=O` (H-LGVFSDWWIKLV-OH; lactam 6-10), the outcome (in the test on Rattus norvegicus [1]; at Toll-like receptor 4 [2]; with Rattus norvegicus [3]; in test [4]) was Active.
Regarding H-LGVFSSWWIKLV-OH, the outcome (in test [5]; in [6]; in test [7]; in the test with Mus musculus [9]; with Mus musculus [10]; on Toll-like receptor 4 [12]) was Active. Besides, the result (on TLR2/TLR6 (Homo sapiens); in test [13]) was inactive. Moreover, the Activity entry (at Toll-like receptor 4 [8]; in test [11]) was “Dose-dependent effect” throughout.
